Test results published in patent US20250353891A1 (MEDIMMUNE LIMITED, priority 2022, published 2025).
Starred links: 1 amine or outer side, 2 acyl side, 3 side chain; linkers in the order of their positions; H or OH if unused. Non-standard residues stand in square brackets, D forms with d. Residues, ends and D or L forms follow the SMILES beside them. Groups on a side chain read outwards from the residue. *: point of attachment. C20 diacid = O=C(O)CCCCCCCCCCCCCCCCCCC(=O)*; C18 diacid = O=C(O)CCCCCCCCCCCCCCCCC(=O)*; γGlu = O=C(O)[C@H](CCC(=O)[*:2])N[*:1]; αMeF = C[C@](N)(Cc1ccccc1)C(=O)O; AEEA = NCCOCCOCC(=O)O; Aib = CC(C)(N)C(=O)O

Experiments:
[1] = biological target: human GLP-1 receptor (hGLP-1R) (Homo sapiens, UniProt P43220); experiment: cAMP production (HTRF) in CHO cells expressing hGLP-1R; assay type: cell-based; set-up: expressed in transfected cells; conditions: for EC50: Table 6, peptides modified at position 17, cAMP in CHO hGLP-1R cells, geometric mean, read-out: hGLP-1R EC50; for % Relative Potency Ratio: Table 6, % GLP-1R activity relative to GLP-1 / % GlucR activity relative to glucagon
Outline: (§1)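 Potency values represent EC50 from 4-parameter logistic curves of HTRF % Delta F signal. Receptor-expressing CHO cells (hGCGR 2×10^5 cells/mL, hGLP-1R 1×10^5 cells/mL) were exposed for 30 min at room temperature before two-step cAMP detection.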

[2] = biological target: human glucagon receptor (hGCGR) (Homo sapiens, UniProt P47871); experiment: cAMP production (HTRF) in CHO cells expressing hGCGR; assay type: cell-based; set-up: expressed in transfected cells; conditions: Table 6, peptides modified at position 17; cAMP in CHO hGCGR cells; geometric mean; read-out: hGluc-R EC50
Outline: as §1

Chain of human glucagon receptor (hGCGR) (P47871 26-477): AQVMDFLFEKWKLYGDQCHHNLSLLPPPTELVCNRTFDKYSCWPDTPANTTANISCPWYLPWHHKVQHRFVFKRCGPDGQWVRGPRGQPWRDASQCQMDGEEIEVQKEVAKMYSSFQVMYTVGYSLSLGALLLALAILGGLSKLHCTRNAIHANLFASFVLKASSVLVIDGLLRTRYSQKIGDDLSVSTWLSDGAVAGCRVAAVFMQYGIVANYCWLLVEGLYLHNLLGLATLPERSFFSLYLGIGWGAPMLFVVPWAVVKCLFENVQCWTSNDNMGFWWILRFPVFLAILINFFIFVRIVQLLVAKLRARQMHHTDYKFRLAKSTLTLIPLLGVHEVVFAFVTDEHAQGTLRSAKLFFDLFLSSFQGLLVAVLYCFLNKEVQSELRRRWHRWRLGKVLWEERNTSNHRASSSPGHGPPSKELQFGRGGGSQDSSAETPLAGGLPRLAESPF
Chain of human GLP-1 receptor (hGLP-1R) (P43220 24-463): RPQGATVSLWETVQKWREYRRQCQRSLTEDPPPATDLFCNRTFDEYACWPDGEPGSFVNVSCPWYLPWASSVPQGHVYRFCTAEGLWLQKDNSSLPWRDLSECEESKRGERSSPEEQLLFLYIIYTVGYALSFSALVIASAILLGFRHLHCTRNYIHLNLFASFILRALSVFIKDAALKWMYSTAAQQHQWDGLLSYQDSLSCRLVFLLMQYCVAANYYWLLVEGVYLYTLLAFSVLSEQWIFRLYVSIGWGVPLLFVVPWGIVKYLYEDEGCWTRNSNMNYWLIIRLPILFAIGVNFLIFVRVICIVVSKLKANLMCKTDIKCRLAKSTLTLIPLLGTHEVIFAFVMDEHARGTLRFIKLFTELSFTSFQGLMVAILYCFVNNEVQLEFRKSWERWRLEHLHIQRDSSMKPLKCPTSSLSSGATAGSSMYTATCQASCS

Structure (SMILES) | EC50 [1] [nM] | % Relative Potency Ratio [1] | EC50 [2] [nM]
CC(C)C[C@H](NC(=O)[C@H](Cc1c[nH]c2ccccc12)NC(=O)[C@H](CCCNC(=N)N)NC(=O)[C@@H](NC(=O)[C@H](Cc1ccccc1)NC(=O)[C@H](CC(=O)O)NC(=O)[C@H](CCC(N)=O)NC(=O)[C@H](C)NC(=O)[C@H](CCCNC(=N)N)NC(=O)[C@H](CCCCNC(=O)COCCOCCNC(=O)COCCOCCNC(=O)CC[C@H](NC(=O)CCCCCCCCCCCCCCCCC(=O)O)C(=O)O)NC(=O)[C@@H](NC(=O)[C@H](CC(=O)O)NC(=O)[C@H](CC(C)C)NC(=O)[C@](C)(Cc1ccccc1)NC(=O)[C@H](CCCCN)NC(=O)[C@H](CO)NC(=O)[C@@H](NC(=O)[C@H](CC(=O)O)NC(=O)[C@H](CO)NC(=O)[C@@H](NC(=O)[C@H](Cc1ccccc1)NC(=O)[C@@H](NC(=O)CNC(=O)[C@H](CCC(N)=O)NC(=O)C(C)(C)NC(=O)[C@@H](N)Cc1c[nH]cn1)[C@@H](C)O)[C@@H](C)O)C(C)C)[C@@H](C)O)C(C)C)C(=O)N[C@@H](CC(C)C)C(=O)N[C@@H](CCCNC(=N)N)C(=O)NC(C)(C)C(=O)N[C@@H](CCCCN)C(N)=O [Peptide 495] (H-H[Aib]QGTFTSDVSK[αMeF]LDTK([AEEA-AEEA-γGlu-C18 diacid])RAQDFVRWLLR[Aib]K-NH2; N-terminus assumed) | 0.0232 | 32.4 | 0.38
CC(C)C[C@H](NC(=O)[C@H](Cc1c[nH]c2ccccc12)NC(=O)[C@H](CCCNC(=N)N)NC(=O)[C@@H](NC(=O)[C@H](Cc1ccccc1)NC(=O)[C@H](CC(=O)O)NC(=O)[C@H](CCC(N)=O)NC(=O)[C@H](C)NC(=O)[C@H](CCCNC(=N)N)NC(=O)[C@H](CCCCNC(=O)COCCOCCNC(=O)COCCOCCNC(=O)CC[C@H](NC(=O)CCCCCCCCCCCCCCCCCCC(=O)O)C(=O)O)NC(=O)[C@@H](NC(=O)[C@H](CC(=O)O)NC(=O)[C@H](CC(C)C)NC(=O)[C@](C)(Cc1ccccc1)NC(=O)[C@H](CCCCN)NC(=O)[C@H](CO)NC(=O)[C@@H](NC(=O)[C@H](CC(=O)O)NC(=O)[C@H](CO)NC(=O)[C@@H](NC(=O)[C@H](Cc1ccccc1)NC(=O)[C@@H](NC(=O)CNC(=O)[C@H](CCC(N)=O)NC(=O)C(C)(C)NC(=O)[C@@H](N)Cc1c[nH]cn1)[C@@H](C)O)[C@@H](C)O)C(C)C)[C@@H](C)O)C(C)C)C(=O)N[C@@H](CC(C)C)C(=O)N[C@@H](CCCNC(=N)N)C(=O)NC(C)(C)C(=O)N[C@@H](CCCCN)C(N)=O [Peptide 496] (H-H[Aib]QGTFTSDVSK[αMeF]LDTK([AEEA-AEEA-γGlu-C20 diacid])RAQDFVRWLLR[Aib]K-NH2; N-terminus assumed) | 0.0649 | 14.7 | 0.482
CC(C)C[C@H](NC(=O)[C@H](Cc1c[nH]c2ccccc12)NC(=O)[C@H](CCCNC(=N)N)NC(=O)[C@@H](NC(=O)[C@H](Cc1ccccc1)NC(=O)[C@H](CC(=O)O)NC(=O)[C@H](CCC(N)=O)NC(=O)[C@H](C)NC(=O)[C@H](CCCNC(=N)N)NC(=O)[C@H](CCCCNC(=O)COCCOCCNC(=O)COCCOCCNC(=O)CC[C@H](NC(=O)CCCCCCCCCCCCCCCCC(=O)O)C(=O)O)NC(=O)[C@@H](NC(=O)[C@H](CC(=O)O)NC(=O)[C@H](CC(C)C)NC(=O)[C@](C)(Cc1ccccc1)NC(=O)[C@H](CCCCN)NC(=O)[C@H](CO)NC(=O)[C@@H](NC(=O)[C@H](CC(=O)O)NC(=O)[C@H](CO)NC(=O)[C@@H](NC(=O)[C@H](Cc1ccccc1)NC(=O)[C@@H](NC(=O)CNC(=O)[C@H](CCC(N)=O)NC(=O)C(C)(C)NC(=O)[C@@H](N)Cc1c[nH]cn1)[C@@H](C)O)[C@@H](C)O)C(C)C)[C@@H](C)O)C(C)C)C(=O)N[C@@H](CC(C)C)C(=O)N[C@@H](CCCNC(=N)N)C(=O)NC(C)(C)C(=O)N[C@@H](C)C(=O)O [Peptide 497] (H-H[Aib]QGTFTSDVSK[αMeF]LDTK([AEEA-AEEA-γGlu-C18 diacid])RAQDFVRWLLR[Aib]A-OH) | 0.0374 | 6.3 | 0.118
CC(C)C[C@H](NC(=O)[C@H](Cc1c[nH]c2ccccc12)NC(=O)[C@H](CCCNC(=N)N)NC(=O)[C@@H](NC(=O)[C@H](Cc1ccccc1)NC(=O)[C@H](CC(=O)O)NC(=O)[C@H](CCC(N)=O)NC(=O)[C@H](C)NC(=O)[C@H](CCCNC(=N)N)NC(=O)[C@H](CCCCNC(=O)COCCOCCNC(=O)COCCOCCNC(=O)CC[C@H](NC(=O)CCCCCCCCCCCCCCCCCCC(=O)O)C(=O)O)NC(=O)[C@@H](NC(=O)[C@H](CC(=O)O)NC(=O)[C@H](CC(C)C)NC(=O)[C@](C)(Cc1ccccc1)NC(=O)[C@H](CCCCN)NC(=O)[C@H](CO)NC(=O)[C@@H](NC(=O)[C@H](CC(=O)O)NC(=O)[C@H](CO)NC(=O)[C@@H](NC(=O)[C@H](Cc1ccccc1)NC(=O)[C@@H](NC(=O)CNC(=O)[C@H](CCC(N)=O)NC(=O)C(C)(C)NC(=O)[C@@H](N)Cc1c[nH]cn1)[C@@H](C)O)[C@@H](C)O)C(C)C)[C@@H](C)O)C(C)C)C(=O)N[C@@H](CC(C)C)C(=O)N[C@@H](CCCNC(=N)N)C(=O)NC(C)(C)C(=O)N[C@@H](C)C(=O)O [Peptide 498] (H-H[Aib]QGTFTSDVSK[αMeF]LDTK([AEEA-AEEA-γGlu-C20 diacid])RAQDFVRWLLR[Aib]A-OH; N-terminus assumed) | 0.156 | 2.1 | 0.17

Results, then the compound that gave them:

EC50 [1] [nM] | % Relative Potency Ratio [1] | EC50 [2] [nM] | Structure (SMILES)
0.0406 | 3.8 | 0.0788 | CC(C)C[C@H](NC(=O)[C@H](Cc1c[nH]c2ccccc12)NC(=O)[C@H](CCC(N)=O)NC(=O)[C@@H](NC(=O)[C@H](Cc1ccccc1)NC(=O)[C@H](CC(=O)O)NC(=O)[C@H](CCC(N)=O)NC(=O)[C@H](C)NC(=O)[C@H](CCCNC(=N)N)NC(=O)[C@H](CCCCNC(=O)COCCOCCNC(=O)COCCOCCNC(=O)CC[C@H](NC(=O)CCCCCCCCCCCCCCCCC(=O)O)C(=O)O)NC(=O)[C@@H](NC(=O)[C@H](CC(=O)O)NC(=O)[C@H](CC(C)C)NC(=O)[C@](C)(Cc1ccccc1)NC(=O)[C@H](CCCCN)NC(=O)[C@H](CO)NC(=O)[C@@H](NC(=O)[C@H](CC(=O)O)NC(=O)[C@H](CO)NC(=O)[C@@H](NC(=O)[C@H](Cc1ccccc1)NC(=O)[C@@H](NC(=O)CNC(=O)[C@H](CCC(N)=O)NC(=O)C(C)(C)NC(=O)[C@@H](N)Cc1c[nH]cn1)[C@@H](C)O)[C@@H](C)O)C(C)C)[C@@H](C)O)C(C)C)C(=O)N[C@@H](CC(C)C)C(=O)N[C@@H](CCCNC(=N)N)C(=O)NC(C)(C)C(=O)N[C@@H](C)C(=O)O [Peptide 499] (H-H[Aib]QGTFTSDVSK[αMeF]LDTK([AEEA-AEEA-γGlu-C18 diacid])RAQDFVQWLLR[Aib]A-OH; N-terminus assumed)
0.102 | 2.0 | 0.101 | CC(C)C[C@H](NC(=O)[C@H](Cc1c[nH]c2ccccc12)NC(=O)[C@H](CCC(N)=O)NC(=O)[C@@H](NC(=O)[C@H](Cc1ccccc1)NC(=O)[C@H](CC(=O)O)NC(=O)[C@H](CCC(N)=O)NC(=O)[C@H](C)NC(=O)[C@H](CCCNC(=N)N)NC(=O)[C@H](CCCCNC(=O)COCCOCCNC(=O)COCCOCCNC(=O)CC[C@H](NC(=O)CCCCCCCCCCCCCCCCCCC(=O)O)C(=O)O)NC(=O)[C@@H](NC(=O)[C@H](CC(=O)O)NC(=O)[C@H](CC(C)C)NC(=O)[C@](C)(Cc1ccccc1)NC(=O)[C@H](CCCCN)NC(=O)[C@H](CO)NC(=O)[C@@H](NC(=O)[C@H](CC(=O)O)NC(=O)[C@H](CO)NC(=O)[C@@H](NC(=O)[C@H](Cc1ccccc1)NC(=O)[C@@H](NC(=O)CNC(=O)[C@H](CCC(N)=O)NC(=O)C(C)(C)NC(=O)[C@@H](N)Cc1c[nH]cn1)[C@@H](C)O)[C@@H](C)O)C(C)C)[C@@H](C)O)C(C)C)C(=O)N[C@@H](CC(C)C)C(=O)N[C@@H](CCCNC(=N)N)C(=O)NC(C)(C)C(=O)N[C@@H](C)C(=O)O [Peptide 500] (H-H[Aib]QGTFTSDVSK[αMeF]LDTK([AEEA-AEEA-γGlu-C20 diacid])RAQDFVQWLLR[Aib]A-OH; N-terminus assumed)
0.0265 | 5.6 | 0.0756 | CC(C)C[C@H](NC(=O)[C@H](Cc1c[nH]c2ccccc12)NC(=O)[C@H](CCC(N)=O)NC(=O)[C@@H](NC(=O)[C@H](Cc1ccccc1)NC(=O)[C@H](CC(=O)O)NC(=O)[C@H](CCCNC(=N)N)NC(=O)[C@H](C)NC(=O)[C@H](CCCNC(=N)N)NC(=O)[C@H](CCCCNC(=O)COCCOCCNC(=O)COCCOCCNC(=O)CC[C@H](NC(=O)CCCCCCCCCCCCCCCCC(=O)O)C(=O)O)NC(=O)[C@@H](NC(=O)[C@H](CC(=O)O)NC(=O)[C@H](CC(C)C)NC(=O)[C@](C)(Cc1ccccc1)NC(=O)[C@H](CCCCN)NC(=O)[C@H](CO)NC(=O)[C@@H](NC(=O)[C@H](CC(=O)O)NC(=O)[C@H](CO)NC(=O)[C@@H](NC(=O)[C@H](Cc1ccccc1)NC(=O)[C@@H](NC(=O)CNC(=O)[C@H](CCC(N)=O)NC(=O)C(C)(C)NC(=O)[C@@H](N)Cc1c[nH]cn1)[C@@H](C)O)[C@@H](C)O)C(C)C)[C@@H](C)O)C(C)C)C(=O)N[C@@H](CC(C)C)C(=O)N[C@@H](CCCNC(=N)N)C(=O)NC(C)(C)C(=O)N[C@@H](C)C(=O)O [Peptide 501] (H-H[Aib]QGTFTSDVSK[αMeF]LDTK([AEEA-AEEA-γGlu-C18 diacid])RARDFVQWLLR[Aib]A-OH; N-terminus assumed)
